From paper PMC9459403, “New inhibitors of cathepsin V impair tumor cell proliferation and elastin degradation and increase immune cell cytotoxicity” (Computational and Structural Biotechnology Journal, 2022)
“Also recorded” adds a separate entry of the source. Marks after values point to notes of the source that are not given here. Where a SMILES comes first, the peptide text is derived from it. [ ]: non-standard residue; d: D form. The star is where a group is joined. Sta = CC(C)C[C@H](N)[C@@H](O)CC(=O)O; Isovaleryl = CC(C)CC(=O)*

Columns and labels:
[1] = system: U-937-derived macrophages; experiment: Intracellular elastin-FITC degradation; assay type: cell-based, human; details: 24 h; for effect on degradation of elastin-FITC compared to control cells: CLIK-148 1 μM, LHVS 10 nM; for decrease of elastin-FITC degradation: 10 μM, vs DMSO
Description: To evaluate the effect of the inhibitors on the elastolytic activity of cathepsin V, we assessed the intracellular degradation of elastin-FITC, a soluble bovine neck ligament elastin that is heavily labeled with FITC such that the fluorescence of the conjugate is quenched. Upon proteolysis, fluorescence is recovered and can be detected. U-937 cells, differentiated into macrophage-like cells, were seeded (at 1 × 10^5 cells/well) into 24-well plates with 500 μL of medium supplemented with 50 nM PMA. Inhibitors or DMSO (0.1 %) and elastin-FITC (10 μg/mL; AnaSpec, Fermont, CA, USA) were added to the medium and incubated for 24 h at 37 °C. Cells were detached and washed with PBS, and propidium iodide (BD Bioscience) was added to exclude dead cells. Therefore, green fluorescence arising from elastin-FITC degradation was monitored only for viable cells. The measurement was performed using a FACSCalibur instrument (BD Biosciences).

[2] = system: MCF7 cells; experiment: Proliferation assay (CFSE-labeled cells, flow cytometry); assay type: cell-based, human; details: 72 h; E-64d 10 μM, pepstatin 20 μM, LHVS 10 nM, CLIK-148 1 μM
Description: To assess the effect of cathepsin V inhibitors on cell proliferation, MCF7 cells were fluorescently labeled with carboxyfluorescein succinimidyl ester (CFSE; ImmunoChemistry Technologies, Bloomington, MN, USA) in PBS for 15 min at room temperature according to the manufacturer’s instructions. Cells were washed with PBS, resuspended in complete medium, seeded (at 4 × 10^4 cells/well) into 24-well plates, and allowed to adhere overnight. Cells were then treated with the following inhibitors: compound 7 (10 μM), E-64d (10 μM), CLIK-148 (1 μM), LHVS (10 nM), pepstatin (20 μM), their combinations, or DMSO (0.1 %) in 500 μL of medium for 72 h at 37 °C. To prepare cells for flow cytometry, cells were detached and transferred to round-bottomed polystyrene tubes and washed with PBS. Before measurement, 7-aminoactinomycin D (7-AAD; ImmunoChemistry Technologies, Bloomington, MN, USA) was added according to the manufacturer’s instructions to exclude dead cells. Therefore, the green fluorescence arising from CFSE was monitored only for viable cells. The measurement was performed using a FACSCalibur instrument (BD Biosciences, San Jose, CA, USA).

[3] = molecular target: T1, human recombinant cathepsin L (Homo sapiens, UniProt P07711); experiment: Determination of relative inhibition, substrate Z-Phe-Arg-AMC; assay type: biochemical; details: inhibitor 50 μM; substrate 2 μM; mean ± SD (n = 2); read-out: Cathepsin L Ri (%) relative inhibition
T1 construct: made in house; host or cells: Escherichia coli
Description: (§1) Human recombinant cathepsin V was expressed in Pichia Pastoris, and human recombinant cathepsin L was expressed in Escherichia coli, as reported, [51]. To determine the activities of cathepsins V and L, 100 mM acetate buffer (pH 5.5), containing 0.1 % PEG 8000 (Sigma-Aldrich, St. Louis, MO, USA), 5 mM cysteine, and 1.5 mM EDTA was used. Prior to the assay, the enzyme was activated in the assay buffer for 5 min at 37 °C.
(§2) The effect of the inhibitors on cathepsin V and L activity was determined using the substrate Z-Phe-Arg-AMC (Bachem, Bubendorf, Switzerland). The reaction was initiated by adding 90 μL of the activated enzyme (final concentration 2.5 ng/mL and 0.02 nM for cathepsins V and L, respectively) to the wells of a black microtiter plate containing 5 μL of substrate (with a final concentration 2 μM) and 5 μL of inhibitor (with a final concentration of 50 μM). The formation of fluorescent degradation products during the reaction was monitored continuously at 460 nm ± 10 nm with excitation at 380 nm ± 20 nm at 37 °C on a Tecan Infinite M1000 (Mannedorf, Switzerland) spectrofluorometer. All assay mixtures contained 5 % (v/v) DMSO. To prevent false-positive inhibition due to the formation of compound aggregates, 0.01 % Triton X-100 was used. All measurements were performed in triplicate and repeated at least twice. Relative inhibition was calculated using the following equation: relative inhibition (%) = 100(1- vi/vo), where vi and vo denote the reaction velocities in the presence and absence of the inhibitor, respectively.

[4] = molecular target: T2, Cathepsin V (Homo sapiens, UniProt O60911); experiment: as above; assay type: biochemical; details: inhibitor 50 μM; substrate 2 μM; mean ± SD (n = 2); read-out: Cathepsin V Ri (%) relative inhibition
T2 construct: made in house; host or cells: Pichia pastoris
Description: as §1, §2

[5] = molecular target: T2, Cathepsin V; experiment: Determination of binding reversibility (dilution method); assay type: biochemical; details: inhibitor 100 μM, cathepsin V 500 ng/ml
Description: Binding reversibility was determined according to the dilution method, which measures the recovery of enzymatic activity after rapid dilution of the enzyme-inhibitor complex. Cathepsin V (500 ng/ml) was incubated in the assay buffer with the inhibitor (100 μM). Half of the reaction mixture was immediately diluted 100-fold with the assay buffer and added to the wells of a black microplate containing 5 μL of substrate (at a final concentration of 2 μM), and the activity was measured. The other half of the reaction mixture was incubated for 2 h before it was diluted 100-fold, and then the activity was measured. The assay was performed in triplicates and repeated at least two times.

[6] = molecular target: T1, human recombinant cathepsin L; experiment: Determination of Ki values and mode of inhibition; assay type: biochemical
Description: as §1
(§3) Inhibition constants were calculated from reaction velocities measured at three substrate concentrations (0.5, 1, and 4 μM) in the presence of inhibitors at seven concentrations (0, 20, 40, 60, 80, 100, and 200 µM). The reaction was initiated by adding 90 μL of enzyme at final concentrations of 2.5 ng/mL and 0.02 nM for cathepsins V and L, respectively, to the wells of a black microtiter plate containing 5 μL of substrate and 5 μL of inhibitor. To evaluate cathepsin V and L activity, the substrate Z-Phe-Arg-AMC was used. The formation of the fluorescent degradation products was monitored as described above. All assay mixtures contained 5 % (v/v) DMSO. All measurements were performed in duplicates and repeated at least twice. The SigmaPlot® 12, Enzyme Kinetics Module™ 1.3 was used to calculate Ki values.

[7] = molecular target: T2, Cathepsin V; experiment: Determination of Ki values and mode of inhibition; assay type: biochemical; details: for fold lower inhibition constant for cathepsin V than cathepsin L: selectivity cathepsin V vs cathepsin L
Description: as §1, §3

T1 sequence (P07711 114-333): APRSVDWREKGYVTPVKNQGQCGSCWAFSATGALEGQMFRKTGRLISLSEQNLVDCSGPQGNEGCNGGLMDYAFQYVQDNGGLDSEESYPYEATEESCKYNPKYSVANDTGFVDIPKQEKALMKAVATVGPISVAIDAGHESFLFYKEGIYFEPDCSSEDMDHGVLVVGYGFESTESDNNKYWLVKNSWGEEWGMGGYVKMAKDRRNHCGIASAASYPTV
T2 sequence (O60911 114-334): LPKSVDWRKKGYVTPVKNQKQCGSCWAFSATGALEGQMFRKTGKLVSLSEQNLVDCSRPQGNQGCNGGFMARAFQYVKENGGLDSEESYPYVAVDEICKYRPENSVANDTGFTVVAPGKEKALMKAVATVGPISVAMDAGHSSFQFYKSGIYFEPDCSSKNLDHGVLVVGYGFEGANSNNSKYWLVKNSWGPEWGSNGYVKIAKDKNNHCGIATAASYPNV

| Structure (SMILES) | effect on degradation of elastin-FITC compared to control cells [1] | effect on cell proliferation (relative CFSE fluorescence intensity vs DMSO) [2] | inhibition at 50 µM [3] [%] | inhibition at 50 µM [4] [%] | binding reversibility: cathepsin V activity after 2 h incubation and 100-fold rapid dilution [5] | mode of inhibition of cathepsin L [6] | Ki ([6]; mean ± SD (n = 2)) [µM] | mode of inhibition of cathepsin V [7] | Ki ([7]; mean ± SD (n = 2)) [µM] | Cathepsin L Ki ([6]; mean ± SD (n = 2)) [µM] | Cathepsin L Ki′ ([6]; mean ± SD (n = 2)) [µM] | Cathepsin L Ki′ (µM) ([6]; mean ± SD (n = 2)) | Cathepsin V Ki (µM) ([7]; mean ± SD (n = 2)) | decrease of elastin-FITC degradation [1] [%] | Cathepsin V Ki′ (µM) ([7]; mean ± SD (n = 2)) | fold lower inhibition constant for cathepsin V than cathepsin L [7] | Cathepsin V Ki′ ([7]; mean ± SD (n = 2)) [µM] |
| --- | --- | --- | --- | --- | --- | --- | --- | --- | --- | --- | --- | --- | --- | --- | --- | --- | --- |
| CN(C)C(=O)[C@H](Cc1ccccc1)NC(=O)[C@H]1O[C@@H]1C(=O)NCCc1ccccn1 [CLIK-148, reference compound] | did not decrease | no effects on cell proliferation | – | – | – | – | – | – | – | – | – | – | – | – | – | – | – |
| CC(=O)c1cccc(NC(=O)c2cnc3sccn3c2=O)c1 [Compound 4, N-(3-acetylphenyl)-5-oxo-5H-thiazolo[3,2-a]pyrimidine-6-carboxamide] | – | – | 23.5 ± 2.2 | > 20 | reversible inhibition | competitive | 84.3 ± 4 | competitive | 352 ± 78.6 | – | – | – | – | – | – | – | – |
| O=C(Nc1nc2c(s1)CN(Cc1ccccc1)CC2)c1cccc2ccccc12 [Compound 5, N-(5-benzyl-4,5,6,7-tetrahydrothiazolo[5,4-c]pyridin-2-yl)-1-naphthamide] | – | – | 30.3 ± 5.5 | -5.8 ± 7 | reversible inhibition; also recorded: restored | uncompetitive | – | – | – | 11.2 ± 0.1 | 11.2 ± 0.1 | 11.2 ± 0.1^e µM | no inhibition | – | – | – | – |
| CCCNC(=O)[C@H]1O[C@@H]1C(=O)N[C@H](C(=O)N1CCC[C@@H]1C(=O)OC)[C@@H](C)CC [Compound 25, Methyl ((2S,3S)-3-(propylcarbamoyl)oxirane-2-carbonyl)-L-isoleucyl-D-prolinate] | – | – | 83.7 ± 1 | – | irreversible; also recorded: completely blocked | competitive | 9.9 ± 0.9 | competitive | 8 ± 0.02 | – | – | – | – | 12.6 ± 4.8 | – | – | – |
| Cc1cc(OCc2ccccc2)c(C(=O)C2OC2c2cc3ccccc3o2)cc1C (centres unmarked) [Compound 27, (3-(Benzofuran-2-yl)oxiran-2-yl)(2-(benzyloxy)-4,5-dimethylphenyl)methanone] | – | – | 22.6 ± 5.1 | > 20 | tight-binding or irreversible; also recorded: only partially restored | competitive | 249 ± 29.8 | noncompetitive | 68.3 ± 4.6 | – | – | – | – | 7.1 ± 2.7 | 68.3 ± 4.6 ^g µM | more than 3 fold | – |
| O=C(c1ccccc1OCc1ccccc1)C1OC1c1csc(-c2ccccc2)n1 (centres unmarked) [Compound 40, (2-(Benzyloxy)phenyl)(3-(2-phenylthiazol-4-yl)oxiran-2-yl)methanone] | – | – | 12.4 ± 0.7 | 27.6 ± 8.7 | reversible; also recorded: restored | competitive | 454 ± 69.1 | uncompetitive | – | – | – | – | – | – | 21.2 ± 2.0^f µM | 21 fold | 21.2 ± 2.0 |
| O=C(NCC1CCN(C(=O)Oc2ccccc2)CC1)NC(c1ccccc1)c1ccccc1 [Compound 42, Phenyl 4-((3-benzhydrylureido)methyl)piperidine-1-carboxylate] | – | – | 3.5 ± 3.1 | 21.6 ± 4.6 | reversible; also recorded: restored | noncompetitive | 319 ± 28.6 | noncompetitive | 156 ± 3.4 | – | – | 319.2 ± 28.6^e µM | – | – | 155.8 ± 3.4^e µM | more than 2 fold | – |
| CC(C)C[C@H](NC(=O)N1CCOCC1)C(=O)N[C@H](/C=C/S(=O)(=O)c1ccccc1)CCc1ccccc1 [LHVS, morpholinurea-leucine-homophenylalanine-vinylsulfone-phenyl, reference compound] | did not decrease | no effects on cell proliferation | – | – | – | – | – | – | – | – | – | – | – | – | – | – | – |
| CC(C)CC(=O)N[C@H](C(=O)N[C@H](C(=O)N[C@@H](CC(C)C)[C@@H](O)CC(=O)N[C@@H](C)C(=O)N[C@@H](CC(C)C)[C@@H](O)CC(=O)O)C(C)C)C(C)C [pepstatin] (Isovaleryl-VV[Sta]A[Sta]-OH) | – | no effects on cell proliferation | – | – | – | – | – | – | – | – | – | – | – | – | – | – | – |
